According to PubChem BioAssay AID1919013 (Molecular Pharmacology Branch, DTP, NCI, 2023):
One block for each molecule: values may come before it.

Tested on: LG0703-F498-PDC complex spheroid growth
Assay: Anticancer human tumor LG0703-F498-PDC patient-derived lung adenocarcinoma cell line growth inhibition [AhR]
Conditions: for IC50: curve of first compound; for viability, T/C: stronger effect = lower value
Method in brief: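 Spheroids combined tumor cells with HUVEC endothelial cells and human MSCs as stroma. AhR antagonists were paired with standard or investigational drugs, each dosed in half-log steps down from near clinical Cmax, or from 10 microM where Cmax was unknown.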

[1] = second compound 0.1 µM, first compound 0.000949 µM
[2] = second compound 0.1 µM, first compound 0.003 µM
[3] = second compound 0.1 µM, first compound 0.00949 µM
[4] = second compound 0.1 µM, first compound 0.03 µM
[5] = second compound 0.1 µM, first compound 0.0949 µM
[6] = second compound 0.1 µM, first compound 0.3 µM
[7] = second compound 0.316 µM, first compound 0.000949 µM
[8] = second compound 0.316 µM, first compound 0.003 µM
[9] = second compound 0.316 µM, first compound 0.00949 µM
[10] = second compound 0.316 µM, first compound 0.03 µM
[11] = second compound 0.316 µM, first compound 0.0949 µM
[12] = second compound 0.316 µM, first compound 0.3 µM
[13] = second compound 1 µM, first compound 0.000949 µM
[14] = second compound 1 µM, first compound 0.003 µM
[15] = second compound 1 µM, first compound 0.00949 µM
[16] = second compound 1 µM, first compound 0.03 µM
[17] = second compound 1 µM, first compound 0.0949 µM
[18] = second compound 1 µM, first compound 0.3 µM
[19] = second compound 3.16 µM, first compound 0.000949 µM
[20] = second compound 3.16 µM, first compound 0.003 µM
[21] = second compound 3.16 µM, first compound 0.00949 µM
[22] = second compound 3.16 µM, first compound 0.03 µM
[23] = second compound 3.16 µM, first compound 0.0949 µM
[24] = second compound 3.16 µM, first compound 0.3 µM
[25] = second compound 10 µM, first compound 0.000949 µM
[26] = second compound 10 µM, first compound 0.003 µM
[27] = second compound 10 µM, first compound 0.00949 µM
[28] = second compound 10 µM, first compound 0.03 µM
[29] = second compound 10 µM, first compound 0.0949 µM
[30] = second compound 10 µM, first compound 0.3 µM
[31] = second compound 0.1 µM, first compound 0.0316 µM
[32] = second compound 0.1 µM, first compound 0.1 µM
[33] = second compound 0.1 µM, first compound 0.316 µM
[34] = second compound 0.1 µM, first compound 1 µM
[35] = second compound 0.1 µM, first compound 3.16 µM
[36] = second compound 0.1 µM, first compound 10 µM
[37] = second compound 0.316 µM, first compound 0.0316 µM
[38] = second compound 0.316 µM, first compound 0.1 µM
[39] = second compound 0.316 µM, first compound 0.316 µM
[40] = second compound 0.316 µM, first compound 1 µM
[41] = second compound 0.316 µM, first compound 3.16 µM
[42] = second compound 0.316 µM, first compound 10 µM
[43] = second compound 1 µM, first compound 0.0316 µM
[44] = second compound 1 µM, first compound 0.1 µM
[45] = second compound 1 µM, first compound 0.316 µM
[46] = second compound 1 µM, first compound 1 µM
[47] = second compound 1 µM, first compound 3.16 µM
[48] = second compound 1 µM, first compound 10 µM
[49] = second compound 3.16 µM, first compound 0.0316 µM
[50] = second compound 3.16 µM, first compound 0.1 µM
[51] = second compound 3.16 µM, first compound 0.316 µM
[52] = second compound 3.16 µM, first compound 1 µM
[53] = second compound 3.16 µM, first compound 3.16 µM
[54] = second compound 3.16 µM, first compound 10 µM
[55] = second compound 10 µM, first compound 0.0316 µM
[56] = second compound 10 µM, first compound 0.1 µM
[57] = second compound 10 µM, first compound 0.316 µM
[58] = second compound 10 µM, first compound 1 µM
[59] = second compound 10 µM, first compound 3.16 µM
[60] = second compound 10 µM, first compound 10 µM
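Also: luminescence taken as a proxy for viable cell amount.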
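For viability, T/C in this document: percent of DMSO vehicle control where 100% means growth equal to vehicle.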

Compound: Nc1ccccc1NC(=O)c1ccc(CNC(=O)OCc2cccnc2)cc1 + Cc1ccccc1N=Nc1ccc(NC(=O)c2ccnn2C)c(C)c1
IC50 (second compound 0.1 µM): 1140 nM
IC50 (second compound 0.316 µM): 895 nM
IC50 (second compound 1 µM): 1080 nM
IC50 (second compound 3.16 µM): 940 nM
IC50 (second compound 10 µM): 1390 nM
viability, T/C [31]: 89.8%
viability, T/C [32]: 95.3%
viability, T/C [33]: 88.6%
viability, T/C [34]: 54%
viability, T/C [35]: 13.7%
viability, T/C [36]: 1.74%
viability, T/C [37]: 103%
viability, T/C [38]: 93.3%
viability, T/C [39]: 78.7%
viability, T/C [40]: 48.4%
viability, T/C [41]: 14.3%
viability, T/C [42]: 1.58%
viability, T/C [43]: 87.8%
viability, T/C [44]: 78.3%
viability, T/C [45]: 77.3%
viability, T/C [46]: 53%
viability, T/C [47]: 15.2%
viability, T/C [48]: 2.52%
viability, T/C [49]: 73.9%
viability, T/C [50]: 75.5%
viability, T/C [51]: 69.3%
viability, T/C [52]: 48%
viability, T/C [53]: 20%
viability, T/C [54]: 3.32%
viability, T/C [55]: 76.8%
viability, T/C [56]: 88.6%
viability, T/C [57]: 79.4%
viability, T/C [58]: 54.3%
viability, T/C [59]: 32.1%
viability, T/C [60]: 10.9%

Compound: O=C(C=Cc1cccc(S(=O)(=O)Nc2ccccc2)c1)NO + Cc1ccccc1N=Nc1ccc(NC(=O)c2ccnn2C)c(C)c1
IC50 (second compound 0.1 µM): 828 nM
IC50 (second compound 0.316 µM): 809 nM
IC50 (second compound 1 µM): 921 nM
IC50 (second compound 3.16 µM): 901 nM
IC50 (second compound 10 µM): 1280 nM
viability, T/C [31]: 106%
viability, T/C [32]: 123%
viability, T/C [33]: 84%
viability, T/C [34]: 43.9%
viability, T/C [35]: 12.4%
viability, T/C [36]: 2.33%
viability, T/C [37]: 110%
viability, T/C [38]: 99.7%
viability, T/C [39]: 81.6%
viability, T/C [40]: 42.9%
viability, T/C [41]: 13.5%
viability, T/C [42]: 2.43%
viability, T/C [43]: 122%
viability, T/C [44]: 111%
viability, T/C [45]: 83.9%
viability, T/C [46]: 50.4%
viability, T/C [47]: 12.6%
viability, T/C [48]: 2.97%
viability, T/C [49]: 97.2%
viability, T/C [50]: 113%
viability, T/C [51]: 86.5%
viability, T/C [52]: 44.8%
viability, T/C [53]: 17.8%
viability, T/C [54]: 2.8%
viability, T/C [55]: 103%
viability, T/C [56]: 101%
viability, T/C [57]: 74.7%
viability, T/C [58]: 60.3%
viability, T/C [59]: 25.9%
viability, T/C [60]: 6.34%

Compound: O=C(c1cc(Cc2n[nH]c(=O)c3ccccc23)ccc1F)N1CCN(C(=O)C2CC2)CC1 + Cc1ccccc1N=Nc1ccc(NC(=O)c2ccnn2C)c(C)c1
IC50 (second compound 0.1 µM): > 10000 nM
IC50 (second compound 0.316 µM): > 10000 nM
IC50 (second compound 1 µM): > 10000 nM
IC50 (second compound 3.16 µM): > 10000 nM
IC50 (second compound 10 µM): > 10000 nM
viability, T/C [31]: 89.3%
viability, T/C [32]: 94.8%
viability, T/C [33]: 89.8%
viability, T/C [34]: 93.8%
viability, T/C [35]: 85.7%
viability, T/C [36]: 84.6%
viability, T/C [37]: 96.5%
viability, T/C [38]: 119%
viability, T/C [39]: 95.7%
viability, T/C [40]: 102%
viability, T/C [41]: 102%
viability, T/C [42]: 79.9%
viability, T/C [43]: 86.7%
viability, T/C [44]: 98%
viability, T/C [45]: 88.7%
viability, T/C [46]: 94.4%
viability, T/C [47]: 90.2%
viability, T/C [48]: 82.2%
viability, T/C [49]: 82.1%
viability, T/C [50]: 97.1%
viability, T/C [51]: 83.5%
viability, T/C [52]: 86.9%
viability, T/C [53]: 83.9%
viability, T/C [54]: 73.9%
viability, T/C [55]: 85.6%
viability, T/C [56]: 93%
viability, T/C [57]: 94.5%
viability, T/C [58]: 77.8%
viability, T/C [59]: 72.3%
viability, T/C [60]: 70.5%

Stronger by IC50 (second compound 0.1 µM), values ahead:

IC50 (second compound 0.1 µM): 5.15 nM
IC50 (second compound 0.316 µM): 5 nM
IC50 (second compound 1 µM): 5.26 nM
IC50 (second compound 3.16 µM): 5 nM
IC50 (second compound 10 µM): 5.1 nM
Compound: CC(C)CC(NC(=O)C(Cc1ccccc1)NC(=O)c1cnccn1)B(O)O (stereo not given) + Cc1ccccc1N=Nc1ccc(NC(=O)c2ccnn2C)c(C)c1
viability, T/C [1]: 101%
viability, T/C [2]: 85.3%
viability, T/C [3]: 10%
viability, T/C [4]: 0.56%
viability, T/C [5]: 0.28%
viability, T/C [6]: 0.18%
viability, T/C [7]: 95.2%
viability, T/C [8]: 80%
viability, T/C [9]: 12.3%
viability, T/C [10]: 0.81%
viability, T/C [11]: 0.11%
viability, T/C [12]: 0.12%
viability, T/C [13]: 85.1%
viability, T/C [14]: 85.8%
viability, T/C [15]: 12.8%
viability, T/C [16]: 0.76%
viability, T/C [17]: 0.13%
viability, T/C [18]: 0.17%
viability, T/C [19]: 86.9%
viability, T/C [20]: 78%
viability, T/C [21]: 14.8%
viability, T/C [22]: 1.06%
viability, T/C [23]: 0.16%
viability, T/C [24]: 0.29%
viability, T/C [25]: 82%
viability, T/C [26]: 81.3%
viability, T/C [27]: 13.5%
viability, T/C [28]: 1.28%
viability, T/C [29]: 0.3%
viability, T/C [30]: 0.39%

IC50 (second compound 0.1 µM): 49.4 nM
IC50 (second compound 0.316 µM): 43.3 nM
IC50 (second compound 1 µM): 30.7 nM
IC50 (second compound 3.16 µM): 23.9 nM
IC50 (second compound 10 µM): 37.1 nM
Compound: CCc1c2c(nc3ccc(O)cc13)-c1cc3c(c(=O)n1C2)COC(=O)[C@]3(O)CC + Cc1ccccc1N=Nc1ccc(NC(=O)c2ccnn2C)c(C)c1
viability, T/C [1]: 79.1%
viability, T/C [2]: 92.9%
viability, T/C [3]: 77.1%
viability, T/C [4]: 56.8%
viability, T/C [5]: 41.5%
viability, T/C [6]: 29.2%
viability, T/C [7]: 98.5%
viability, T/C [8]: 94.6%
viability, T/C [9]: 75.8%
viability, T/C [10]: 57.9%
viability, T/C [11]: 35.6%
viability, T/C [12]: 24.9%
viability, T/C [13]: 86.5%
viability, T/C [14]: 79.7%
viability, T/C [15]: 69.2%
viability, T/C [16]: 48.4%
viability, T/C [17]: 36.3%
viability, T/C [18]: 24.5%
viability, T/C [19]: 93.9%
viability, T/C [20]: 83.3%
viability, T/C [21]: 64.3%
viability, T/C [22]: 45%
viability, T/C [23]: 34.1%
viability, T/C [24]: 21.7%
viability, T/C [25]: 65.8%
viability, T/C [26]: 79%
viability, T/C [27]: 69.1%
viability, T/C [28]: 51.7%
viability, T/C [29]: 35.8%
viability, T/C [30]: 24.7%

IC50 (second compound 0.1 µM): < 31.6 nM
IC50 (second compound 0.316 µM): < 31.6 nM
IC50 (second compound 1 µM): < 31.6 nM
IC50 (second compound 3.16 µM): < 31.6 nM
IC50 (second compound 10 µM): < 31.6 nM
Compound: Nc1ccn(C2OC(CO)C(O)C2(F)F)c(=O)n1 (stereo not given) + Cc1ccccc1N=Nc1ccc(NC(=O)c2ccnn2C)c(C)c1
viability, T/C [31]: 40.4%
viability, T/C [32]: 34.1%
viability, T/C [33]: 31%
viability, T/C [34]: 31.8%
viability, T/C [35]: 31%
viability, T/C [36]: 28.1%
viability, T/C [37]: 35.8%
viability, T/C [38]: 36.6%
viability, T/C [39]: 30.5%
viability, T/C [40]: 32%
viability, T/C [41]: 31.9%
viability, T/C [42]: 22.6%
viability, T/C [43]: 37.6%
viability, T/C [44]: 33.7%
viability, T/C [45]: 34.1%
viability, T/C [46]: 31.4%
viability, T/C [47]: 29.5%
viability, T/C [48]: 22.1%
viability, T/C [49]: 30.8%
viability, T/C [50]: 38.2%
viability, T/C [51]: 31%
viability, T/C [52]: 27.8%
viability, T/C [53]: 24.6%
viability, T/C [54]: 24.5%
viability, T/C [55]: 39.3%
viability, T/C [56]: 36.5%
viability, T/C [57]: 37.5%
viability, T/C [58]: 37.8%
viability, T/C [59]: 36.9%
viability, T/C [60]: 26.2%
